{
  "source": "patent US8153634B2",
  "about": "“Carbinol derivatives having cyclic linker” (Kowa Company, Ltd., priority 2008, dated 2012)",
  "origin": "cited, not measured here",
  "system": "LXRβ (versus LXRα)",
  "conditions": "reported in non-patent document 22",
  "data": [
    {"smiles": "O=C(O)Cc1ccc(COc2cccc(-c3c(Cc4ccccc4)cnc4c(C(F)(F)F)cccc34)c2)cc1", "note": "[WAY-254011]", "values": [
      {"measurement": "LXRβ-selective binding affinity, α/β ratio", "result": "1 to 5"}
    ]}
  ]
}
